# Legend:
# [1] = tested on: Staphylococcus aureus ATCC25923; assay: Nematode infection model and lifespan assay (survival of C. elegans infected by Staphylococcus aureus); assay type: in vivo, Caenorhabditis elegans; conditions: for dose-effect relationship of protection of nematode survival: doses up to 30 mg/mL
# Procedure: Human milk oligosaccharide solutions were prepared with distilled water and incubated in Petri dishes containing a nematode growth medium at different final concentrations (1, 10, and 30 mg/mL, respectively). To better determine the range of the ideal concentration, a preliminary screening on the dose-effect relationship of 2′-FL was first performed, and the 2′-FL concentrations used were 0.001, 0.01, 0.1, 1 and 10 mg/mL. For the HMO compositions, included were a test concentration of 8 mg/mL and a 15 mg/mL, respectively, after the addition into the nematode growth medium.
# Age-consistent nematodes were obtained and cultured in Petri dishes containing nematode agar media (nematode media containing E. coli OP50 as food) with different doses of HMO (1, 8, 10, 15, 30 mg/mL) for co-culture. After the nematodes came into adulthood, they were transferred to petri dishes inoculated with Staphylococcus aureus ATCC25923 (supplemented at approximately 10^8 to 10^9CFU/mL) to simulate the condition of infection by Staphylococcus aureus. The intervening substances (HMO) added in the infection stage of each group were the same as those in the culture stage. Two controls were used, one without the pathogen (C. elegans dish containing E. coli OP50) and one with Staphylococcus aureus infection without any intervention (dish with Staphylococcus aureus only). In addition, a group in which an intervening substance was added in the culture phase and no intervention in the infection phase, and a group in which the intervention substance was not added in the cultivation phase but added in the infection phase were set up.
# Several days into the culture of the nematodes, their survival rate was counted on a daily basis. […] Two independent assays were carried out for each condition (that is, unless otherwise specified, the experimental data in the examples were the results of two independent experiments).
# Statistical comparative analysis of survival curves was performed, and log rank survival significance analysis was performed using the GraphPad Prism 4 or GraphPad Prism 9 statistical software package. One-way ANOVA was used to analyze for significant differences in survival rates among the groups on the third or fifth day of infection. For the comparison of the groups, an asterisk*represents the degree of the significant difference, with ****indicating P<0.0001, and ***indicating P<0.001. NS means not significant.
# [2] = tested on: Staphylococcus aureus ATCC25923; assay: Disc diffusion bacteriostatic zone experiment; assay type: cell-based; conditions: positive control, 200 μg/mL; 37° C., 18 hours
# Procedure: In order to determine whether the tested materials themselves have an antibacterial effect, a bacteriostatic zone experiment for disk diffusion was carried out. Discs were prepared with sterile filter paper impregnated with the tested HMO materials (10 mg/mL, 30 mg/mL), and the discs were dried overnight under sterile conditions. Staphylococcus aureus ATCC25923 (1.0×10^6CFU/mL) was spread evenly on the surface of a NGM agar plate, and then the discs were placed on the surface of the inoculated agar plate petri dish. Gentamicin (200 μg/mL) was used as a positive control. All dishes were incubated at 37° C. for 18 hours.
# In order to investigate whether the protective effects of individual HMOs or their compositions against Staphylococcus aureus infection, as presented in previous tests, were derived from direct bactericidal or bacteriostatic function, a test was carried out in which the test material was incubated with the bacteria population and observed whether an bacteriostatic zone of was formed. As shown in the figure, at two different concentration (left: 10 mg/mL, right: 30 mg/mL), none of the human milk oligosaccharides alone formed a transparent annular bacteriostatic zone around the inoculation site. […]
# [3] = 1 mg/mL, vs infected control without intervention
# [4] = 10 mg/mL, vs infected control without intervention
# [5] = 30 mg/mL, vs infected control without intervention
Compound,"effect on nematode survival rate after Staphylococcus aureus infection [1, 3]","effect on nematode survival rate after Staphylococcus aureus infection [1, 4]","effect on nematode survival rate after Staphylococcus aureus infection [1, 5]",dose-effect relationship of protection of nematode survival [1],"survival rate of nematodes ([1]; under protection of 6′-SL, 10 or 30 mg/mL, infected for 3 days)",effect on lifespan of nematodes after Staphylococcus aureus infection ([1]; 15 mg/mL),"effect on nematode survival rate after Staphylococcus aureus infection ([1]; 15 mg/mL, another batch of experiments)","effect on nematode survival rate after Staphylococcus aureus infection ([1]; doses at 1 mg/mL or less, survival curve vs infected control without intervention)",formation of a transparent annular bacteriostatic zone [2],"survival rate of nematodes compared with 2′-FL ([1]; infection for 3 days, 3-FL 10 mg/mL vs 2′-FL 30 mg/mL)","protection of nematodes compared with 2′-FL at the same dose ([1]; same dose, infection for 3 days)"
"CC(=O)N[C@H]1[C@H](O[C@H]2[C@@H](O)[C@@H](CO)O[C@@H](O[C@H]3[C@H](O)[C@@H](O)C(O)O[C@@H]3CO)[C@@H]2O)O[C@H](CO)[C@@H](O)[C@@H]1O[C@@H]1O[C@H](CO)[C@H](O)[C@H](O)[C@H]1O (stereo partly shown) [LNT, Lacto-N-Tetraose]",not greatly improved,significantly improved,significantly improved,has a dose-effect relationship,,,,,,,
"CC(=O)N[C@H]1[C@H]([C@H](O)[C@H](O)CO)O[C@@](OC[C@H]2O[C@@H](O[C@H]3[C@H](O)[C@@H](O)[C@H](O)O[C@@H]3CO)[C@H](O)[C@@H](O)[C@H]2O)(C(=O)O)C[C@@H]1O [6′-SL, 6′-sialyllactose]",not greatly improved,significantly improved,significantly improved,has a dose-effect relationship,up to 75%,,,,,,
2′-fucosyllactose [2′-FL],,considerable increase in nematode survival rate which was significant (P<0.0001),"the protective effect was significantly increased, and the effect was significant (P<0.0001)",dose-dependent and optimal at 30 mg/mL,,significantly prolongs the lifespan of nematodes,significantly improves the survival rate of nematodes,did not show any effects,,,
Gentamicin,,,,,,,,,showed a bacteriostatic effect,,
"CC(=O)N[C@H]1[C@H]([C@H](O)[C@H](O)CO)O[C@@](O[C@H]2[C@@H](O)[C@@H](CO)O[C@@H](O[C@H]3[C@H](O)[C@@H](O)C(O)O[C@@H]3CO)[C@@H]2O)(C(=O)O)C[C@@H]1O (stereo partly shown) [3′-SL, 3′-sialyllactose]",no significant effect was observed,no significant effect was observed,no significant effect was observed,,,,,,,,
3-fucosyllactose [Composition 3-FL],no effect,better protective function (P<0.0001),better protective function (P<0.0001),greater protection shown at higher doses,,,,,,the same effect was achieved with 3-FL at 10 mg/mL as that with 2′-FL at 30 mg/mL,more effective in protecting nematodes from Staphylococcus aureus infection than 2′-FL
